# According to US4582822A, “Antibiotic A80190, pharmaceutical compositions containing same and method of use” (Eli Lilly and Company, priority 1984, dated 1986):
# Where a SMILES comes first, the peptide text is derived from it. Bridges are numbered along the chain shown (N, C = ends). [ ]: non-standard residue; d: D form. The star is where a group is joined. Ileψ(thiazoline)Cys = CC[C@H](C)[C@H](N)C1=N[C@H](C(=O)*)CS1; dOrn = NCCC[C@@H](N)C(=O)O
# Legend:
# [1] = test system: NRRL 15878; assay: Resistance to antibiotics, sensitivity discs on seeded agar; type: cell-based, Actinomadura oligospora
# Description: (§1) Resistance to antibiotics was measured by padding antibiotic sensitivity discs onto the surface of seeded ISP No. 2 agar plates.
# (§2) Table III lists the resistance of the strain to various antibiotics at the concentrations indicated and compares it to that of A. macra.
# [2] = test system: A. macra; assay: as above; type: cell-based, Actinomadura macra
# Description: as §1, §2
molecule,measurement,setting,value
CC[C@H](C)[C@H](N)C1=N[C@H](C(=O)N[C@@H](CC(C)C)C(=O)N[C@H](CCC(=O)O)C(=O)N[C@H](C(=O)N[C@H]2CCCCNC(=O)[C@H](CC(N)=O)NC(=O)[C@@H](CC(=O)O)NC(=O)[C@H](Cc3cnc[nH]3)NC(=O)[C@@H](Cc3ccccc3)NC(=O)[C@H]([C@@H](C)CC)NC(=O)[C@@H](CCCN)NC2=O)[C@@H](C)CC)CS1 [Bacitracin] ({Ileψ(thiazoline)Cys}-L[dE]IK[dOrn]I[dF]H[dD]N; lactam 4-C),Resistance to Antibiotics,[1]; 10 units,+
same,Resistance to Antibiotics,[2]; 10 units,-
CC(=O)OCC1=C(C(=O)O)N2C(=O)[C@@H](NC(=O)Cc3cccs3)[C@H]2SC1 [Cephalothin],Resistance to Antibiotics,[2]; 30 μg,+
CC1(C)S[C@@H]2[C@H](NC(=O)Cc3ccccc3)C(=O)N2[C@H]1C(=O)O [Pencillin G],Resistance to Antibiotics,[1]; 10 units,+
same,Resistance to Antibiotics,[2]; 10 units,+
CO[C@H]1/C=C/O[C@@]2(C)Oc3c(C)c(O)c4c(O)c(c(/C=N/N5CCN(C)CC5)c(O)c4c3C2=O)NC(=O)/C(C)=C\C=C\[C@H](C)[C@H](O)[C@@H](C)[C@@H](O)[C@@H](C)[C@H](OC(C)=O)[C@@H]1C [Rifampin],Resistance to Antibiotics,[2]; 5 μg,+
CN[C@@H]1[C@H](O[C@H]2[C@H](O[C@H]3[C@H](O)[C@@H](O)[C@H](N=C(N)N)[C@@H](O)[C@@H]3N=C(N)N)O[C@@H](C)[C@]2(O)C=O)O[C@@H](CO)[C@H](O)[C@H]1O [Streptocmycin],Resistance to Antibiotics,[1]; 10 μg,-
same,Resistance to Antibiotics,[2]; 10 μg,+
CN[C@H](CC(C)C)C(=O)N[C@H]1C(=O)N[C@@H](CC(N)=O)C(=O)N[C@H]2C(=O)N[C@H]3C(=O)N[C@H](C(=O)N[C@H](C(=O)O)c4cc(O)cc(O)c4-c4cc3ccc4O)[C@H](O)c3ccc(c(Cl)c3)Oc3cc2cc(c3O[C@@H]2O[C@H](CO)[C@@H](O)[C@H](O)[C@H]2O[C@H]2C[C@](C)(N)[C@H](O)[C@H](C)O2)Oc2ccc(cc2Cl)[C@H]1O [Vancomycin],Resistance to Antibiotics,[1]; 30 μg,-
same,Resistance to Antibiotics,[2]; 30 μg,-
Gentamicin,Resistance to Antibiotics,[1]; 10 μg,-
same,Resistance to Antibiotics,[2]; 10 μg,-
Tetracycline,Resistance to Antibiotics,[1]; 30 μg,-
same,Resistance to Antibiotics,[2]; 30 μg,-
